Legend:
[1] = States of preparations observed with the naked eyes (solubilization); format: physicochemical; conditions: water, without TPGS, apparent concentration 2 mg/ml
Protocol: A surfactant TPGS was selected for solubilization. Preparation method: 40 mg of THY was weighed and placed in a beaker, added with a certain amount of water and TPGS and magnetically stirred at room temperature for 24 h. In micelle preparations 2-8, mass ratios of THY to TPGS were 2:1, 1:1, 1:2.5, 1:5, 1:7, 1:10, 1:15, and 1:20, respectively.
40 mg of THY-Tos was weighed and placed in a beaker, and added with a certain amount of water and TPGS. For Preparations 2 to 5, the mass ratios of THY-Tos to TPGS were 1:1, 1:7, 1:10, and 1:15, respectively. The above micelle preparations were magnetically stirred for 24 h to obtain the final products.

oral ulcer rats = experiment: Pharmacodynamic study in NaOH-induced oral ulcer rats; parameters: species or system SD rats; conditions: rat, in vivo
Text: After 3 days of adaptive feeding, each rat was anesthetized and fixed on an operating table, the labial mucosa of the SD rat was dried with sterile cotton balls, and further sterile cotton balls were used for moisture isolation. A 3 mm×3 mm NaOH crystal was placed on the labial mucosa, and then removed after being maintained for 30 s. A treated area was wiped with sterile cotton balls containing normal saline to remove residual NaOH. […]
An area method was used to macroscopically evaluate the oral ulcer area, a maximum transverse diameter and longitudinal diameter of the ulcer were measured by vernier calipers, which were marked as d1 and d2, respectively, and a ulcer area was S=π×d1×d2×¼ (π=3.14). […]
The analysis was performed by t-test, and normally distributed quantitative data were expressed as mean±standard deviation (X, ±S), one-way ANOVA and LSD methods were used for pairwise comparison, and the Wilcoxon rank-sum test was used when the ANOVA conditions were not met. […]

solubility (in words) [1]: poor solubility
Compound: Cc1ccc(C(C)C)c(OC(=O)CCC(=O)Oc2c(C)c(C)c3c(c2C)CC[C@@](C)(CCC[C@H](C)CCC[C@H](C)CCCC(C)C)O3)c1 [THY-Tos]
efficacy on an animal-based oral ulcer model compared with THY in combination with vitamin E (oral ulcer rats): not significantly different

Reference: patent US12324790B1, “Preparation method and application of micelle preparation containing thymol and derivative thereof” (Nanjing Mucosa Tech Co., Ltd., priority 2024, dated 2025)
